The text below walks through data of patent US7951530B2, “Cyclic maltosylmaltose, cyclic maltosymaltose-forming enzyme, their preparation and uses” (Kabushiki Kaisha Hayashibara Seibutsu Kagaku Kenkyujo, priority 2003, dated 2011).

For this data set, the target named is T1, Salivary α-amylase (Homo sapiens, UniProt P0DUB6).
T1 sequence (P0DUB6 16-511): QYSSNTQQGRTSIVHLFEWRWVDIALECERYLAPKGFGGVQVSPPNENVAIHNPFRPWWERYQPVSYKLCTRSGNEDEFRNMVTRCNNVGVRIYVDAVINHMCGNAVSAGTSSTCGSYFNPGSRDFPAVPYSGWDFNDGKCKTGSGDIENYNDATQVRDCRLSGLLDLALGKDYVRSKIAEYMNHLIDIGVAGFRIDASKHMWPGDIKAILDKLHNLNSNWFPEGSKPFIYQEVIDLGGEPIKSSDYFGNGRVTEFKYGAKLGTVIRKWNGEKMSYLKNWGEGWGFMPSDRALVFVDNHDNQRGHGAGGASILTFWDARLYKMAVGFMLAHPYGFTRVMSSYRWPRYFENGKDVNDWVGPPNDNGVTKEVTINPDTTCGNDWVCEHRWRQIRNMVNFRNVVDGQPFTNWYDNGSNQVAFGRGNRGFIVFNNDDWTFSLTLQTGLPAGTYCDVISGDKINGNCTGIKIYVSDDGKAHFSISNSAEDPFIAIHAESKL
Description: 43, 23-29 (1990), the digestibility of CMM by salivary α-amylase, artificial gastric juice, pancreas amylase, and small intestinal enzymes were investigated using the powdery hydrous crystalline CMM, obtained by the method in Experiment 14.

For the compound `OC[C@H]1O[C@@H]2OC[C@H]3O[C@H](O[C@H]4[C@H](O)[C@@H](O)[C@@H](OC[C@H]5O[C@H](O[C@H]1[C@H](O)[C@H]2O)[C@H](O)[C@@H](O)[C@@H]5O)O[C@@H]4CO)[C@H](O)[C@@H](O)[C@@H]3O` [CMM, cyclo{>6)-α-D-glucopyranosyl-(1>4)-α-D-glucopyranosyl-(1>6)-α-D-glucopyranosyl-(1>4)-α-D-glucopyranosyl-(1>}], the “Degradation rate (%)” value came to 0%.
